Test results: patent US20260144752A1, “Multilamellar Vesicles and Methods and Uses Thereof” (ChromoLogic LLC, priority 2022, published 2026)

Assays:
[1] = cited from earlier work
[2] = cited from earlier work; remark: listed apart in the source
[3] = test system: lipid peroxidation; assay: Lipid peroxidation in cells exposed to IR; assay type: cell-based; conditions: cells exposed to 5 Gy IR, FIG. 5A
Description: (§1) In various embodiments JP4-039-MLV nanoparticles protect cells from IR-induced oxidative stress. In addition to DNA damage, IR-induced oxidative stress can result in lipid peroxidation, mitochondrial membrane permeability, and an increase in ROS concentration. FIGS. 5A-5C provide exemplary data of an embodiment showing reduction of IR-induced cellular dysregulation.

[4] = test system: γ-H2AX; assay: IR-induced DNA double strand breaks, γ-H2AX immunohistochemistry in irradiated cells; assay type: cell-based; conditions: cells treated prior to irradiation of 0 Gy and 5 Gy, FIGS. 4A-4B
Description: In various embodiments JP4-039-MLVs have the ability to reduce IR-induced DNA double strand breaks (DSBs). IR induces DNA damage resulting in double strand breaks that can result in mitotic failure and cell death. Secondary oxidative stress induces further DNA damage. In response to double strand breaks, the histone H2AX is rapidly phosphorylated, producing γ-H2AX, a standard biomarker of DNA damage. […] FIGS. 4A-4B illustrate exemplary data from an embodiment showing the ability to reduce DNA DSBs. Specifically, FIG. 4A provides confocal images of cells treated with DMSO (control), JP4-039, and JP4-039-MLVs prior to irradiation of 0 Gy and 5 Gy. Cell nuclei are stained with DAPI (blue) and γ-H2AX is visualized by immunohistochemistry (green), while FIG. 4B illustrates relative frequency of γ-H2AX+ cells by counting blue puncta and green puncta.

[5] = test system: ROS; assay: ROS levels in cells exposed to IR; assay type: cell-based; conditions: cells exposed to 5 Gy IR, FIG. 5C
Description: as §1

[6] = stated for comparison; cited from earlier work
[7] = test system: mitochondrial membrane permeability; assay: Mitochondrial membrane permeability in cells exposed to IR; assay type: cell-based; conditions: cells exposed to 10 Gy IR, FIG. 5B
Description: as §1

[8] = test system: γ-H2AX+ intestinal crypt cells; conditions: mice, 9.25 Gy TBI; cited from earlier work

JP4-039
solubility in an aqueous environment [1]: very low solubility | survival following TBI ([2]; hematopoietic- or gastrointestinal-ARS-inducing doses of TBI): increasing survival | time window of effectiveness relative to irradiation ([2]; in vivo radiation survival studies): effective 24 h prior to 72 h after irradiation | levels of lipid peroxidation [3]: reduce levels of lipid peroxidation | protection from IR-induced DNA damage (relative frequency of γ-H2AX+ cells) [4]: protected cells from IR-induced DNA damage | ROS levels [5]: reduced ROS levels | in vivo half-life [6]: approximately 6 hours | levels of mitochondrial membrane permeability [7]: reduced levels of mitochondrial membrane permeability | number of γ-H2AX+ intestinal crypt cells [8]: reduce the number of γ-H2AX+ intestinal crypt cells
